The values that follow come from patent publication US20240400577A1, “MODULATORS OF PROTEIN KINASES” (VIBLIOME THERAPEUTICS, LLC, priority 2021, published 2024).

What all share (experiment): Kinase panel enzymatic inhibition assay (Nanosyn)
Type in all cases: biochemical
What all share (details): compound 5 μM; ATP at Km; 30-minute pre-incubation

One experiment has as its target T1, p38b (Homo sapiens, UniProt Q15759).
T1 construct: Nanosyn (contract laboratory that ran the panel)
The method, boiled down: (§1)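 Enzymatic inhibition measured within a panel of at least 300 kinases, using a validated format such as Caliper LabChip mobility shift, ADP detection or time-resolved fluorescence. Compounds tested at 5 μM with ATP at each kinase's Km, after a 30-minute pre-incubation. Values given as percent inhibition or IC50.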

The target in a further experiment is T2, DDR1 (Homo sapiens, UniProt Q08345).
T2 construct: purchased Nanosyn (contract screening)
A digest of the protocol: as §1

In the next experiment the target is T3, FGR (Homo sapiens, UniProt P09769).
T3 construct: purchased Nanosyn (contract screening)
T3 sequence (P09769 whole entry): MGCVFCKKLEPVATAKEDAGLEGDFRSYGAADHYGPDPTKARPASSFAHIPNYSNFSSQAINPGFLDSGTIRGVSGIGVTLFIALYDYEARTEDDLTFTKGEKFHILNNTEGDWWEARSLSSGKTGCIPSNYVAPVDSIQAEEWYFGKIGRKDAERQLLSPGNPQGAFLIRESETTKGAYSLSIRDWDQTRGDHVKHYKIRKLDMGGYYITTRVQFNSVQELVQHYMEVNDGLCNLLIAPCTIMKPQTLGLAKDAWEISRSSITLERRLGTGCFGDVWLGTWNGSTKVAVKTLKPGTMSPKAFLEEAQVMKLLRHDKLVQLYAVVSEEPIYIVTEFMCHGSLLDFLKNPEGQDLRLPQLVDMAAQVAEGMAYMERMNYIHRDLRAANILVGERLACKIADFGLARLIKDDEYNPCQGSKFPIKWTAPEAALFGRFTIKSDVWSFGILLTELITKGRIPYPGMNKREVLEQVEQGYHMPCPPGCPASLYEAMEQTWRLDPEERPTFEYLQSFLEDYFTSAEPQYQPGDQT
The method, boiled down: as §1

For a further experiment, the target named is T4, BRK (Homo sapiens, UniProt Q13882).
T4 construct: purchased Nanosyn (contract screening)
A digest of the protocol: as §1

In a further experiment the target is T5, Abl2 (Homo sapiens, UniProt P42684).
T5 construct: purchased Nanosyn (contract screening)
T5 sequence (P42684 whole entry): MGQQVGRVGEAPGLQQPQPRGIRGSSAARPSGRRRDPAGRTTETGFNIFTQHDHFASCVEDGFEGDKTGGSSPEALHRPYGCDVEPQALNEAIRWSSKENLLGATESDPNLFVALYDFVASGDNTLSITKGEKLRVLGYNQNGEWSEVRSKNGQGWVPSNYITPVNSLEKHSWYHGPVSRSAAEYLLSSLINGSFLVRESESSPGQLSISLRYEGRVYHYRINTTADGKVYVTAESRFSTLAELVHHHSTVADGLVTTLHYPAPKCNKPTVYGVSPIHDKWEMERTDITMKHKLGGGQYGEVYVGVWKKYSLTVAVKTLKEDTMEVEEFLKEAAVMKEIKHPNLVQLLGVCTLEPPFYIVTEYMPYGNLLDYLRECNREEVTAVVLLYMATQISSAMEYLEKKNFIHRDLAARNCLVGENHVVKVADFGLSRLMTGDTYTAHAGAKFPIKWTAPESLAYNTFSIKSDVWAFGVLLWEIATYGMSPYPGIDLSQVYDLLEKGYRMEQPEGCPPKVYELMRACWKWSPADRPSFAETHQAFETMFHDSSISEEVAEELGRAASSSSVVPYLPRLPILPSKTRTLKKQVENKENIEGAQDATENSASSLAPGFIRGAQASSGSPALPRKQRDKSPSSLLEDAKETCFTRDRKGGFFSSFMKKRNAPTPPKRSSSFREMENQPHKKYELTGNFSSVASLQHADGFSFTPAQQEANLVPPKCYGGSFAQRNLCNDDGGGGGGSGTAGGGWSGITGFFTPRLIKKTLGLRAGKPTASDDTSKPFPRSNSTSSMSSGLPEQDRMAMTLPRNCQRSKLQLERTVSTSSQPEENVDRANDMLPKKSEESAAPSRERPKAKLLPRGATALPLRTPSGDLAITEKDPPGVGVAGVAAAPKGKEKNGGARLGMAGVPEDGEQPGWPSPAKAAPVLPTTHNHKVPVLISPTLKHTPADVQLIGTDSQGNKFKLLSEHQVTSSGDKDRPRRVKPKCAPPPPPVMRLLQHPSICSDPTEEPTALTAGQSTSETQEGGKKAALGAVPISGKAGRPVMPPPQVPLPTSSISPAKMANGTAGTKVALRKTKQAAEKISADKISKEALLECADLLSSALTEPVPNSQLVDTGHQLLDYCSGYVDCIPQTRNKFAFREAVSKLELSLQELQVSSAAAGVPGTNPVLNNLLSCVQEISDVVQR
A digest of the protocol:
as §1

A further experiment has as its target T6, MAP4K2 (Homo sapiens, UniProt Q12851).
T6 construct: purchased Nanosyn (contract screening)
T6 sequence (Q12851 1-820): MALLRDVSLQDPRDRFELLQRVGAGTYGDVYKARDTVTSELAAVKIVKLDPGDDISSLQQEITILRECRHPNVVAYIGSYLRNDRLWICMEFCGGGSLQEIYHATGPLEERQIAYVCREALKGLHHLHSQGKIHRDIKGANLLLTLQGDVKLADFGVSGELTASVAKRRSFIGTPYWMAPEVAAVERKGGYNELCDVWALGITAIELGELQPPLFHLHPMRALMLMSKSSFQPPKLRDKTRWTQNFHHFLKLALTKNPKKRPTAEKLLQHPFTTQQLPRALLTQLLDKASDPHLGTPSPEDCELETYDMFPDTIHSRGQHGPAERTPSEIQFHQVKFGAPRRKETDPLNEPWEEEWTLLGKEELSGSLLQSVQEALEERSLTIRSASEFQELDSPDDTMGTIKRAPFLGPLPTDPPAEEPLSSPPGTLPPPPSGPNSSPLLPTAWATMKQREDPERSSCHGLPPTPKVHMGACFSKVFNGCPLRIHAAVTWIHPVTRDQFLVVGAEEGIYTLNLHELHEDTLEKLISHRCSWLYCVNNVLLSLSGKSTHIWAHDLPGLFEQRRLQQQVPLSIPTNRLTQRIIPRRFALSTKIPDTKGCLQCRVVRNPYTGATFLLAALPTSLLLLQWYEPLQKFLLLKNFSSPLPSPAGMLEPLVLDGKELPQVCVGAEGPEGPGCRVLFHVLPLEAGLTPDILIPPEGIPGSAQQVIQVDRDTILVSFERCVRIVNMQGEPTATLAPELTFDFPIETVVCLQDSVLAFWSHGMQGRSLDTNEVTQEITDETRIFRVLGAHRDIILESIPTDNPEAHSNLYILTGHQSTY
The method, boiled down:
as §1

The target in the next experiment is T7, HCK (Homo sapiens, UniProt P08631).
T7 construct: purchased Nanosyn (contract screening)
T7 sequence (P08631 whole entry): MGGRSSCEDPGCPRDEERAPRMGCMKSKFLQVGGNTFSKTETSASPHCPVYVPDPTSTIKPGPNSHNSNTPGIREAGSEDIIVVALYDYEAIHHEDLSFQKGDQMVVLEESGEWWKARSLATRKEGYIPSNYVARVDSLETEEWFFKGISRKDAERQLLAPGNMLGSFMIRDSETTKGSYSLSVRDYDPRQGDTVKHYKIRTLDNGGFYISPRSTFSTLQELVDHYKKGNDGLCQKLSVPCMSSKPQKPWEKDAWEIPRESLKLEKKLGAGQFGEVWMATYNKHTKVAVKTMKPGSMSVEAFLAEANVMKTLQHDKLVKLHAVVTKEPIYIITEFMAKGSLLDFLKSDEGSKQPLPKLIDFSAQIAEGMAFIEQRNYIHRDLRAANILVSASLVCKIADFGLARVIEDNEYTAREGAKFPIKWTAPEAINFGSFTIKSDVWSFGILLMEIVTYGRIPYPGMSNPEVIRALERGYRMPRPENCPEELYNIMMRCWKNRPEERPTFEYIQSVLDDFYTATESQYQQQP
The method, boiled down: as §1

A further experiment has as its target T8, YES (Homo sapiens, UniProt P07947).
T8 construct: Nanosyn (contract laboratory that ran the panel)
A digest of the protocol: as §1

The target of a further experiment is T9, CLK4 (Homo sapiens, UniProt Q9HAZ1).
T9 construct: purchased Nanosyn (contract screening)
T9 sequence (Q9HAZ1 whole entry): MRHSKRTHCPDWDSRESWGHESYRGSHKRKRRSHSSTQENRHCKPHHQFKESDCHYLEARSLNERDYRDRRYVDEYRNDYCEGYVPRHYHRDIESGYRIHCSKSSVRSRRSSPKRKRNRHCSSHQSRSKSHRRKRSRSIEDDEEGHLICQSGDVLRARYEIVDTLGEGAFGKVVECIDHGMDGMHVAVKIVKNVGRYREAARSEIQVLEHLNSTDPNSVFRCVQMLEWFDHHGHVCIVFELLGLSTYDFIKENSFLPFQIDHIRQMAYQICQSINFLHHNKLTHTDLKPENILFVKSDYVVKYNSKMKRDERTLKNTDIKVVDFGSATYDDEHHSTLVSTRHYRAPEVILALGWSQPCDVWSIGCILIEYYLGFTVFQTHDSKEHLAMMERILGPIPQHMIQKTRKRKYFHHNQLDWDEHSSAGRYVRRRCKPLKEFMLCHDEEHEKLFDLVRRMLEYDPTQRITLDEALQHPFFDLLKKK
A digest of the protocol: as §1

The target in the next experiment is T10, PKCb1 (Homo sapiens, UniProt P05771).
T10 construct: Nanosyn (contract laboratory that ran the panel)
T10 sequence (P05771 whole entry): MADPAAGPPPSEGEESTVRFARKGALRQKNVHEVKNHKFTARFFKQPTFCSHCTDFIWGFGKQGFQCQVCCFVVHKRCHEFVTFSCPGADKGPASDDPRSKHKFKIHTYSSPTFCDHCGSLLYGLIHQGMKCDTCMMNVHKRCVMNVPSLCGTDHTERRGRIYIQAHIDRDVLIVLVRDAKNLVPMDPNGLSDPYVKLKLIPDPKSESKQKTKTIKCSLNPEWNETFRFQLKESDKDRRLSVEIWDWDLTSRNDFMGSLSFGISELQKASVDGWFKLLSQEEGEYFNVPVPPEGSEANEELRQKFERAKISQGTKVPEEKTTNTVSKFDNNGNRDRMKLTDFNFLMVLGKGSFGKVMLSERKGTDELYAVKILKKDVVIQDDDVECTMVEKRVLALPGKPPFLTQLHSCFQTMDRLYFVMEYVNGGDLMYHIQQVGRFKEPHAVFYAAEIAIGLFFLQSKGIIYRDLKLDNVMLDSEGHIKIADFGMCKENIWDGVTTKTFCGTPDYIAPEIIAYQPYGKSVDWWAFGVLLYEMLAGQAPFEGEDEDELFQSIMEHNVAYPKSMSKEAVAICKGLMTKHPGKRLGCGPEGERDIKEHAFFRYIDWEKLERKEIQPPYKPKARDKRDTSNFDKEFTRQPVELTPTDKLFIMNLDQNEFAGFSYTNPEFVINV
A digest of the protocol: as §1

A further experiment deals with T11, BRAF (Homo sapiens, UniProt P15056).
T11 construct: purchased Nanosyn (contract screening)
A digest of the protocol:
as §1

The target of another experiment is T12, MNK2 (Homo sapiens, UniProt Q9HBH9).
T12 construct: Nanosyn (contract laboratory that ran the panel)
T12 sequence (Q9HBH9 whole entry): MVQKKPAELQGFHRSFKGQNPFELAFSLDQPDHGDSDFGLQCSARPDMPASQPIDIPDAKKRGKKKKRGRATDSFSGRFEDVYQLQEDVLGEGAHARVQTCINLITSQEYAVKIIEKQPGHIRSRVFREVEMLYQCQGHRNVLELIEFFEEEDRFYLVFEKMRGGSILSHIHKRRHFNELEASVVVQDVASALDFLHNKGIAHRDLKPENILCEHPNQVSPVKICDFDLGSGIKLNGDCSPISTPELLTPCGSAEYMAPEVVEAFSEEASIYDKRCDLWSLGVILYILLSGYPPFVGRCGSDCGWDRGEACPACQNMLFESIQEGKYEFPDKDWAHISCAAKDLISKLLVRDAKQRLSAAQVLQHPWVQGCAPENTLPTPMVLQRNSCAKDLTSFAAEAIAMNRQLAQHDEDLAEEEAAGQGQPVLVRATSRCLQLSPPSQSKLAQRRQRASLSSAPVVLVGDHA
The method, boiled down: as §1

In a further experiment the target is T13, CSK (Homo sapiens, UniProt P41240).
T13 construct: purchased Nanosyn (contract screening)
T13 sequence (P41240 whole entry): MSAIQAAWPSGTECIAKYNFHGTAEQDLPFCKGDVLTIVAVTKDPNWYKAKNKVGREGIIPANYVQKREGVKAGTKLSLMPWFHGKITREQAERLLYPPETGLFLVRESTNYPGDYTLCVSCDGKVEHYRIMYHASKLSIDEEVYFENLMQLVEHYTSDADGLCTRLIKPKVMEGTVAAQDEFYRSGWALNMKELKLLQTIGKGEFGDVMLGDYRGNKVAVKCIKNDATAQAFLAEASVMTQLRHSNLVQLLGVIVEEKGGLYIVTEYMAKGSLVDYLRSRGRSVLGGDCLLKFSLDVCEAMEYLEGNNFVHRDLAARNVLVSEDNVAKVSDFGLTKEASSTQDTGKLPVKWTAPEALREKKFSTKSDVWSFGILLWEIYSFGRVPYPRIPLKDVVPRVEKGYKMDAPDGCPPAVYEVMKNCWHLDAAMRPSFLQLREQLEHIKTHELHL
The method, boiled down: as §1

Another experiment addresses T14, ARAF (Homo sapiens, UniProt P10398).
T14 construct: purchased Nanosyn (contract screening)
T14 sequence (P10398 1-606): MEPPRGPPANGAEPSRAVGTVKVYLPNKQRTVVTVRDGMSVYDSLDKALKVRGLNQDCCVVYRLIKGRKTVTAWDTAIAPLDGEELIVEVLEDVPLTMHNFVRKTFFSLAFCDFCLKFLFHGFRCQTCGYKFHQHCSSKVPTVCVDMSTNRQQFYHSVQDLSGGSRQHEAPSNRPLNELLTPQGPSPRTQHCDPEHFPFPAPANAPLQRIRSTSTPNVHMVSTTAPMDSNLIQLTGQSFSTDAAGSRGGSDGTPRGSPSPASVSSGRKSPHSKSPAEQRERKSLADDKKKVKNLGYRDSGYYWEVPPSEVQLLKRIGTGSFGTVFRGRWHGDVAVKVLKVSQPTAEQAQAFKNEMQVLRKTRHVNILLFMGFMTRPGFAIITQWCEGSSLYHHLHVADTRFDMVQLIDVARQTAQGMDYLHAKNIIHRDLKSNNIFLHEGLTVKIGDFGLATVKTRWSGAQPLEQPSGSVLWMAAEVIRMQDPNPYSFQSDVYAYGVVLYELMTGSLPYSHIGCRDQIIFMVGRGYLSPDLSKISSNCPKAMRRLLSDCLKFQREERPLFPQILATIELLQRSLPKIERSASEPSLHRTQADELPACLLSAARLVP
A digest of the protocol: as §1

T8 sequence (P07947 whole entry): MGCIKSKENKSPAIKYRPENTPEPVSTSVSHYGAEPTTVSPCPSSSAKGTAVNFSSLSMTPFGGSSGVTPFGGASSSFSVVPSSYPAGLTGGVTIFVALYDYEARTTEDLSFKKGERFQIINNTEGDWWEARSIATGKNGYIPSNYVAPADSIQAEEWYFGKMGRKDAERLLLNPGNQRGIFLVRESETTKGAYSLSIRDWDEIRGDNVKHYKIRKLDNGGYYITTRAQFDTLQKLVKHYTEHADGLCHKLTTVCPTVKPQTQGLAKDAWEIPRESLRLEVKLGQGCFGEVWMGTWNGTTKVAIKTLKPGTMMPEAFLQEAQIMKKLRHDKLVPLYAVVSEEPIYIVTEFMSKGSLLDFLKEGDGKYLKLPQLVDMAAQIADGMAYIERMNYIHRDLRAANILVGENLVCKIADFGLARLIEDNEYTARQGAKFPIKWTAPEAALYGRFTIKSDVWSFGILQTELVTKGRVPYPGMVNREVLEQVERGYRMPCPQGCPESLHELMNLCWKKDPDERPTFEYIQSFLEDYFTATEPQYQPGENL

Regarding `Cc1ccc(NC(=O)c2cc(S(C)(=O)=O)n(-c3ccc(F)cc3)n2)cc1C#Cc1cnc2cccnn12` [Ex14, 1-(4-fluorophenyl)-N-(3-(imidazo[1,2-b]pyridazin-3-ylethynyl)-4-methylphenyl)-5-(methylsulfonyl)-1H-pyrazole-3-carboxamide], the inhibition at 5 µM was less than 79% on p38b; not below 95% at DDR1; 80 to 89% on FGR; less than 79% against BRK; not below 95% at Abl2; less than 79% on MAP4K2. Also, the inhibition at 5 µM on HCK was 90 to 94%; on YES, less than 79%; at CLK4, less than 79%; on PKCb1, less than 79%; against BRAF, not below 95%; at MNK2, less than 79%. Also, the inhibition at 5 µM against CSK was 80 to 89%; against ARAF it was not below 95%.
